In patent US11167007B2, “FOXM1 modulators and uses thereof” (City of Hope, priority 2016, dated 2021):
Entries after “also recorded” stand apart in the source; their conditions may differ.

Assays:
AR = target: T1, AR (Homo sapiens, UniProt P10275); assay: FRET-based AR conformation change reporter (CFP-AR-YFP, CARY) in GT1-7 cells; type: cell-based, mouse; design: Full length AR with cyan fluorescent protein (CFP) or yellow fluorescent protein (YFP) fused to either end (CARY); expressed in transfected cells
T1 sequence (P10275 1-920): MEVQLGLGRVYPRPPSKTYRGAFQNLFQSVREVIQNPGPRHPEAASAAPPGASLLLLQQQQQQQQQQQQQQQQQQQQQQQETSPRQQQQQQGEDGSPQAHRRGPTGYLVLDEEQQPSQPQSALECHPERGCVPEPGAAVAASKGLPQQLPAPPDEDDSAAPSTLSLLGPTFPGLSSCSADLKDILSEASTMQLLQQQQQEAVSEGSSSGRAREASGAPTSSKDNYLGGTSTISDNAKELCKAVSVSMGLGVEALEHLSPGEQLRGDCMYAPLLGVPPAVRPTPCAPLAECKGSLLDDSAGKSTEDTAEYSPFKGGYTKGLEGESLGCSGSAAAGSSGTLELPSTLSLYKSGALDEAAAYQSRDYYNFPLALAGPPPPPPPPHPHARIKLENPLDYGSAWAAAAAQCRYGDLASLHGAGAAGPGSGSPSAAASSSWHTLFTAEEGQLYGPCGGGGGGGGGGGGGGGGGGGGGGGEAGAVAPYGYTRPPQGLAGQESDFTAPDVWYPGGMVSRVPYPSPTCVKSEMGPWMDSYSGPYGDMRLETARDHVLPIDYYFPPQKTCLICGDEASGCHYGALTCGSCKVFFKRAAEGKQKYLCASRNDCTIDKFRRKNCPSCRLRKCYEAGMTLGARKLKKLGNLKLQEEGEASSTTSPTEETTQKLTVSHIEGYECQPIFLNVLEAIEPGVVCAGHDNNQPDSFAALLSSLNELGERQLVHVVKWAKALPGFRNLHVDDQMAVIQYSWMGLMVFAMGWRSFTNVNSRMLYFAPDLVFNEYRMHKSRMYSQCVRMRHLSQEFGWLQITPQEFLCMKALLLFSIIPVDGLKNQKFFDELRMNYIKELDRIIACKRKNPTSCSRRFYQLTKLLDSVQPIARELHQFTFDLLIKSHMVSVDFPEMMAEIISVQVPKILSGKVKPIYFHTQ
Procedure: Creation of stable C-AR-Y reporter cell lines. Cell lines listed above were either transfected with a plasmid or a virus containing the CFP-AR-YFP construct preceding an IRES and hygromycin resistance gene and clonal stable cell lines selected. Qualification criteria for the transfected cell lines were described by Jones et al, ACS Chem Biol, 3(7):412-8 (2008).
Screen for AR-modulators. Screening was performed essentially as described by Jones et al, ACS Chem Biol, 3(7):412-8 (2008). Briefly, C-AR-Y reporter GTI-7 were transferred to 96 well plates and treated with library compounds for 24 hours. […] The compounds to be tested were from the NCI/DTP Open Chemical Repository's Approved Oncology Drugs Set II, Diversity Set II and Mechanistic Set. […] After 24 hours, medium was aspirated and FRET was measured as previously described using a monochromator-based fluorescence plate reader (M1000, Tecan, Inc.). Jones et al, ACS Chem Biol, 3(7):412-8 (2008). […]
In order to identify potential cell-type selective AR modulators, the FRET-based assay of AR conformation change was utilized. […] This produces an accurate and quantifiable read-out of AR activity. […] Candidate hits were then further evaluated by dose response. […] In addition to FRET, AR transcriptional activity was also assessed in several cell lines by transfecting cells with a luciferase reporter driven by the human PSA promoter. […]

β-catenin = assay: Western blot of β-catenin in nuclear and cytoplasmic fractions of GT1-7 cells; type: cell-based, murine; conditions: nuclear fraction, FIG. 3D
Excerpt: Western Blot. Cell lysates was separated on a 6% SDS page gel and transferred to a nitrocellulose membrane. The membrane was blocked for one hour in 5% skim milk dissolved in TBS-T and probed with the following antibodies ([…]): FoxM1 (rabbit, GeneTex), AR: 441 (mouse, Santa Cruz Biotechnology), β-catenin (rabbit 9562, Cell Signaling Technology), p84 (mouse, GeneTex) and actin (mouse, Santa Cruz Biotechnology). Horse radish peroxidase linked secondary antibodies were used along with ECL reagents for visualization. Western blots were quantified using Quantity One analysis software (BioRad).
It has been previously reported that thiostrepton causes decreased levels of FOXM1. Hegde et al, Nat Chem, 3(9):725-31 (2011); Gartel, Front Oncol, 3:150 (2013). […] The nuclear association between FOXM1 and β-catenin increases the transcriptional activity of both factors. Zhang et al, Cancer Cell, 20(4):427-42 (2011). β-catenin is a key AR coactivator in a variety of cells. Yang, J Biol Chem, 277(13):11336-44 (2002); Truica et al, Cancer Res, 60(17):4709-13 (2000). The inventors believed that thiostrepton could inhibit AR activity by limiting access to nuclear β-catenin via FOXM1 depletion. […] As expected, control actin protein was observed primarily in cytoplasmic fraction.

Structure (SMILES): C=C(NC(=O)C(=C)NC(=O)c1csc(C2=N[C@@H]3c4csc(n4)[C@H]4NC(=O)c5csc(n5)[C@H]([C@](C)(O)[C@@H](C)O)NC(=O)[C@H]5CSC(=N5)/C(=C/C)NC(=O)[C@H]([C@@H](C)O)NC(=O)c5csc(n5)[C@]3(CC2)NC(=O)[C@H](C)NC(=O)C(=C)NC(=O)C(=C)NC(=O)[C@H](C(C)C)N[C@@H]2C=Cc3c([C@H](C)O)cc(nc3[C@H]2O)C(=O)O[C@@H]4C)n1)C(N)=O [NSC285116, siomycin A]
- inhibition of DHT-induced AR conformation change (AR; dose response, GT1-7 cells, FIG. 1B): dose dependent inhibition
- AR inhibitor (antagonist) activity in words (AR; neuronal GT1-7 cells, FRET or luciferase): greatest potency; also recorded: demonstrated antagonist activity

Structure (SMILES): C=C(NC(=O)C(=C)NC(=O)c1csc(C2=N[C@@H]3c4csc(n4)[C@H]4NC(=O)c5csc(n5)[C@H]([C@](C)(O)[C@@H](C)O)NC(=O)[C@H]5CSC(=N5)/C(=C/C)NC(=O)[C@H]([C@@H](C)O)NC(=O)c5csc(n5)[C@]3(CC2)NC(=O)[C@H](C)NC(=O)C(=C)NC(=O)[C@H](C)NC(=O)[C@H]([C@@H](C)CC)N[C@@H]2C=Cc3c([C@H](C)O)cc(nc3[C@H]2O)C(=O)O[C@@H]4C)n1)C(N)=O [thiostrepton]
- levels of nuclear β-catenin (β-catenin): lower levels
